Experimental data published in publication PMC9770967, “Native holdup (nHU) to measure binding affinities from cell extracts” (Science Advances, 2022).

How the values were obtained:
Assay type in all cases: binding, human
SNX27_PDZ = experiment: nHU-MS, SNX27_PDZ bait, total Jurkat extracts, series 2 (Exploris MS)
Description: (§1) To further establish the repeatability and robustness of the nHU-MS assay, we repeated the experiments using a different mass spectrometer and six different PDZ domain baits taken from SCRIB (PDZ_1 and PDZ_2), discs large MAGUK scaffold protein 1 (DLG1, PDZ_1, and PDZ_2), Tax1 binding protein 3 (TAX1BP3), and SNX27 (fig. S3B and table S1). […] Of the studied baits, the PDZ domain of SNX27 turned out to be the most promiscuous with 103 statistically significant interaction partners (while 180 SNX27 binding partners were identified in total on the basis of the three independent nHU-MS experiments).
(§2) For saturating streptavidin resin with biotinylated peptides or biotin, 50 μl of streptavidin resin was mixed with biotin or peptide at 40 to 60 μM concentration in 6 to 6.5 resin volume for 60 min. To saturate streptavidin resin with biotinylated proteins, 50 μl of streptavidin resin (Streptavidin Sepharose High Performance, Cytiva) was mixed with biotinylated MBP or MBP-PDZ at 40 to 50 μM concentration in 20× resin volume for 60 min. After saturation, resins were washed a single time [10 resin volume, holdup buffer: 50 mM tris (pH 7.5), 300 mM NaCl, and 1 mM TCEP, 0.22-μm filtered] and were depleted with biotin (10 resin volume, 10 min, holdup buffer supplemented with 100 μM biotin). Last, resins were washed two times (10 resin volume, holdup buffer).
(§3) For single-point nHU experiments carried out at ~10 μM bait concentration, 50 μl of saturated streptavidin resin was mixed with 200 μl of cell lysate (2 mg/ml). Titration experiments were carried out by mixing control and bait-saturated resin and keeping the total resin volume constant; e.g., ~5 μM bait concentration can be achieved by mixing 25 μl of bait-saturated streptavidin resin with 25 μl of control resin and 200 μl of cell lysate (2 mg/ml). Control and bait-saturated resins were prepared in larger amounts, and a serial dilution was prepared with these presaturated resins to achieve different resin ratios.
(§4) Unless specified elswhere, the nHU mixture was incubated at 4°C for 2 hours. After the incubation ended, the resin was separated from the supernatant by a brief centrifugation (15 s, 2000 g). Then, half of the supernatant was removed by pipetting without any delay to avoid any resin contamination; e.g., 100 μl of supernatant is collected if 200 μl of cell lysate was used as analyte. Alternatively, the supernatant can be centrifuged an additional time to clarify it further, removing any possible resin contamination. In principle, the separation of the supernatant should be as fast as possible since any delay can perturb the equilibrium. […] Alternatively, the resin can be separated from the supernatant using filter plates (e.g., various products of Millipore, Burlington, MA) or spin columns (e.g., Pierce spin cups—cellulose acetate filter from Thermo Fisher Scientific, Waltham, MA) to achieve faster separation.
(§5) The nHU samples were precipitated with trichloroacetic acid (TCA) 20% overnight at 4°C and centrifuged at 14,000 rpm for 10 min at 4°C. The protein pellets were washed twice with 1 ml of cold acetone and air-dried. The protein extracts were solubilized in 8 M urea, reduced with 5 mM TCEP for 30 min, and alkylated with 10 mM iodoacetamide for 30 min in the dark. Double digestion was performed at 37°C with 500 ng of endoproteinase Lys-C (Wako, Richmond, USA) for 4 hours, followed by fourfold dilution and an overnight digestion with 500 ng of trypsin (Promega, Charbonnieres les Bains, France). Peptide mixtures were then desalted on a C18 spin-column and dried on a speed vacuum.
(§6) Samples were analyzed using an Ultimate 3000 nano-RSLC coupled in line via a nano-electrospray ionization source, with an LTQ-Orbitrap ELITE mass spectrometer (Thermo Fisher Scientific, San Jose, CA) or with the Orbitrap Exploris 480 mass spectrometer (Thermo Fisher Scientific, Bremen, Germany) equipped with a high field asymmetric ion mobility spectrometry (FAIMS) module. […]

TX1BP3_PDZ = experiment: nHU-MS, TX1BP3_PDZ (TAX1BP3) bait, total Jurkat extracts (Exploris MS); conditions: for BI / Difference log2 / Ratio TX1BP3/MBP: nHU-MS, total Jurkat extract; for BI: TX1BP3_PDZ bait vs MBP; for Difference log2: TX1BP3_PDZ vs MBP; for Ratio TX1BP3/MBP: TX1BP3_PDZ
Description: as §1, §2, §3, §4, §5, §6

SCRIB_PDZ_1 = experiment: nHU-MS, SCRIB_PDZ_1 bait, total Jurkat extracts (Exploris MS); conditions: for Ratio SCRIB_1/MBP: SCRIB_PDZ_1, total Jurkat extract; for BI: SCRIB_PDZ_1 bait vs MBP; for Difference log2: SCRIB_PDZ_1 vs MBP
Description: as §1, §2, §3, §4, §5, §6

SCRIB_PDZ_2 = experiment: nHU-MS, SCRIB_PDZ_2 bait, total Jurkat extracts (Exploris MS); conditions: nHU-MS; for Ratio SCRIB_2/MBP: SCRIB_PDZ_2, total Jurkat extract; for BI: SCRIB_PDZ_2 bait vs MBP; for BI / Difference log2: total Jurkat extract; for Difference log2: SCRIB_PDZ_2 vs MBP
Description: as §1, §2, §3, §4, §5, §6

DLG1_PDZ_1 = experiment: nHU-MS, DLG1_PDZ_1 bait, total Jurkat extracts (Exploris MS); conditions: for Ratio DLG1_1/MBP: DLG1_PDZ_1, total Jurkat extract; for BI: DLG1_PDZ_1 bait vs MBP; for BI / pKd / Difference log2: total Jurkat extract; for pKd: DLG1_PDZ_1 bait, not filtered for significance (pKdsign N/D); for Difference log2: DLG1_PDZ_1 vs MBP
Description: as §1, §2, §3, §4, §5, §6

DLG1_PDZ_2 = experiment: nHU-MS, DLG1_PDZ_2 bait, total Jurkat extracts (Exploris MS); conditions: Jurkat extract; for Difference log2 / Ratio DLG1_2/MBP: DLG1_PDZ_2 bait vs MBP; for BI: DLG1_PDZ_2 bait
Description: as §1, §2, §3, §4, §5, §6

| Substance | BI (SNX27_PDZ; Jurkat, series 2, n = 3) | Difference log2 (SNX27_PDZ; Jurkat, series 2, n = 3) | Ratio SNX27/MBP (SNX27_PDZ; Jurkat, series 2, n = 3) | BI (TX1BP3_PDZ) | Difference log2 (TX1BP3_PDZ) | Ratio TX1BP3/MBP (TX1BP3_PDZ) | Ratio SCRIB_1/MBP (SCRIB_PDZ_1; nHU-MS) | BI (SCRIB_PDZ_1; nHU-MS, total Jurkat extract) | Difference log2 (SCRIB_PDZ_1; nHU-MS, total Jurkat extract) | Ratio SCRIB_2/MBP (SCRIB_PDZ_2) | BI (SCRIB_PDZ_2) | Difference log2 (SCRIB_PDZ_2) | Ratio DLG1_1/MBP (DLG1_PDZ_1) | BI (DLG1_PDZ_1) | pKd (DLG1_PDZ_1) | Difference log2 (DLG1_PDZ_1) | Difference log2 (DLG1_PDZ_2) | Ratio DLG1_2/MBP (DLG1_PDZ_2) | BI (DLG1_PDZ_2) | further results |
| --- | --- | --- | --- | --- | --- | --- | --- | --- | --- | --- | --- | --- | --- | --- | --- | --- | --- | --- | --- | --- |
| PIGBOS1: Protein PIGBOS1 (MFRRLTFAQLLFATVLGIAGGVYIFQPVFEQYAKDQKELKEKMQLVQESEEKKS; UniProt A0A0B4J2F0 1-54, looked up) | -0.08774 | 0.1213 | 1.088 | -0.09136 | 0.1261 | 1.091 | 1.118 | -0.1177 | 0.1605 | 1.081 | -0.08098 | 0.1123 | 0.91 | 0.08999 | 3.996 | -0.136 | 0.04834 | 1.034 | -0.03407 | – |
| PPIAL4C: Peptidyl-prolyl cis-trans isomerase A-like 4C | -0.1115 | 0.1526 | 1.112 | -0.05401 | 0.07589 | 1.054 | 0.9925 | 0.007486 | -0.01084 | 1.136 | -0.1361 | 0.1841 | 0.9698 | 0.03017 | 3.493 | -0.0442 | 0.05781 | 1.041 | -0.04089 | pKd (SCRIB_PDZ_1; nHU-MS, SCRIB_PDZ_1 bait, total Jurkat extract, not filtered for significance (pKdsign N/D)): 2.878 |
| PPIAL4H: Peptidyl-prolyl cis-trans isomerase A-like 4H | 0.2686 | -0.4513 | 0.7314 | -0.05277 | 0.07419 | 1.053 | 1.007 | -0.006606 | 0.009499 | 1.14 | -0.1396 | 0.1885 | 0.8033 | 0.1967 | 4.3897 | -0.3159 | 0.01399 | 1.01 | -0.009745 | pKd (SNX27_PDZ; apparent, Jurkat, series 2, not filtered for significance, n = 3): 4.566 |
| WDR48 | – | – | – | – | – | – | – | – | – | – | – | – | – | – | – | – | – | – | – | pKapp (nHU-MS) (SNX27_PDZ; SNX27_PDZ&Jurkat (Exploris)): 4.78; pKapp (nHU-MS) (TX1BP3_PDZ; TX1BP3_PDZ&Jurkat (Exploris)): 4.78; pKapp (nHU-MS) (SCRIB_PDZ_1; SCRIB_PDZ_1&Jurkat (Exploris)): 4.749 |
